Source: PMC5368959, “Uricosuric targets of tranilast” (Pharmacology Research & Perspectives, 2017)
“And” between values parts separate entries of the source, which are not always exact repeats. Equal values may be shown once.

Experiments:
[1] = target: T1, SMCT1 (Homo sapiens, UniProt Q8N695); experiment: [14C]-nicotinate uptake by SMCT1-expressing Xenopus oocytes; type: cell-based; details: for IC50: data not shown, read-out: IC50, SMCT1-mediated [14C]-nicotinate uptake
T1 sequence (Q8N695 1-610): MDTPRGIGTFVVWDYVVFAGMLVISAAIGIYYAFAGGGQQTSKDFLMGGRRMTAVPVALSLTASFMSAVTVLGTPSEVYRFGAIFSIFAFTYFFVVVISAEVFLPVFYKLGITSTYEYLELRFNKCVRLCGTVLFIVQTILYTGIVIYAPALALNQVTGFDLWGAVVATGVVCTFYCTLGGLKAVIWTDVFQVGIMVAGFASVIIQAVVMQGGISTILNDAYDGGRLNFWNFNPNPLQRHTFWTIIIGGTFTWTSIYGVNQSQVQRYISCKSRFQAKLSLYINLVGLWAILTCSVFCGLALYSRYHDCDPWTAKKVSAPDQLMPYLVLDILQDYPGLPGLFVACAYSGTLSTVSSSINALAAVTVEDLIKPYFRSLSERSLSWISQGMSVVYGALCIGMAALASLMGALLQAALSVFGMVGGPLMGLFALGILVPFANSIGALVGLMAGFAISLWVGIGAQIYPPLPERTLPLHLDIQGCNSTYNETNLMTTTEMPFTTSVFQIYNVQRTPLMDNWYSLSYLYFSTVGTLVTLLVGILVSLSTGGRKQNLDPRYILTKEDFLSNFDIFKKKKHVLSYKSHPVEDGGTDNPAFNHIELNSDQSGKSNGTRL
Protocol: (§1) For uptake experiments, oocytes were washed four times with ND96 medium (pH 7.4) without pyruvate and gentamycin.
(§2) Chloride ion‐dependence was also assessed; in 0 Cl^− bath, NaCl was replaced by Na‐gluconate (Na‐Gluc), KCl by K‐gluconate (K‐Gluc), MgCl2 by Mg‐gluconate, and CaCl2 by Ca‐gluconate. […] Data are mean ± S.E. with n = 12–15.

[2] = target: T2, SMCT2 (Homo sapiens, UniProt Q1EHB4); experiment: [14C]-nicotinate uptake by SMCT2-expressing Xenopus oocytes; type: cell-based; details: for IC50: data not shown, read-out: IC50, SMCT2-mediated [14C]-nicotinate uptake
T2 sequence (Q1EHB4 1-618): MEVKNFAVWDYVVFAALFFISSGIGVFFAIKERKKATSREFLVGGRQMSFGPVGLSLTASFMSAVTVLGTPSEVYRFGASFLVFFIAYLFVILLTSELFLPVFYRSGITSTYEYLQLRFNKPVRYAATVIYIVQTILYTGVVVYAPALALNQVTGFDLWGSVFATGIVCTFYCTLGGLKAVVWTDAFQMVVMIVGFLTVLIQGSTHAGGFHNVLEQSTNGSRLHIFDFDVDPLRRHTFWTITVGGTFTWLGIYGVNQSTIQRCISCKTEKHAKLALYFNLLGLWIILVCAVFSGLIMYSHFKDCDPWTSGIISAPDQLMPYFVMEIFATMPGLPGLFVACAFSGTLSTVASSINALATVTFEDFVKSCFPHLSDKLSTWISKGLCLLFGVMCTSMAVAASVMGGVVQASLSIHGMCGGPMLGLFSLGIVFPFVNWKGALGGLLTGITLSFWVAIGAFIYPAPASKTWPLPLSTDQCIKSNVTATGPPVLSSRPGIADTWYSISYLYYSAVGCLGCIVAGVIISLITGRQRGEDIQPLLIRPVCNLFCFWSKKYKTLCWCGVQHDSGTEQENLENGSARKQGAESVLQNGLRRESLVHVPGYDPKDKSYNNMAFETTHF
Protocol: as §1, §2

[3] = target: T3, OAT3 (Mus musculus, UniProt O88909); experiment: [14C]-urate uptake by OAT3-expressing Xenopus oocytes; type: cell-based
T3 sequence (O88909 1-537): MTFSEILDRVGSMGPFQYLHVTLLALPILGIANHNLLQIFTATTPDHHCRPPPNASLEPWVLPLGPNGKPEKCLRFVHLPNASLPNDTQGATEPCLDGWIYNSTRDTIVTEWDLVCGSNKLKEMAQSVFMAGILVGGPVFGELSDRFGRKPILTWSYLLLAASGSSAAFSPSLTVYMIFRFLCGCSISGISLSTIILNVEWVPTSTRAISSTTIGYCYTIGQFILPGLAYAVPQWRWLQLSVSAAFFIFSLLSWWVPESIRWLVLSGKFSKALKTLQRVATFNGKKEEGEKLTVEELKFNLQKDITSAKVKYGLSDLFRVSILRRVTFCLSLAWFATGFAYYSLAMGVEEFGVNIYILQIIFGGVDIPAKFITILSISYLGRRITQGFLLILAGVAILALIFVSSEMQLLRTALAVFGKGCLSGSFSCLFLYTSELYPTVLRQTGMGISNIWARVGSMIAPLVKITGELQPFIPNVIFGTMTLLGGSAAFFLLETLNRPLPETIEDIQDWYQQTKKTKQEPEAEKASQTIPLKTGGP
Protocol: as §1
The uptake of [^14C]‐urate (40 μmol/L) was performed in ND96 medium (pH 7.4) at ~25°C for 1 h.

[4] = target: T4, ABCG2 (Homo sapiens, UniProt Q9UNQ0); experiment: [14C]-urate efflux from ABCG2-expressing Xenopus oocytes
T4 sequence (Q9UNQ0 1-655): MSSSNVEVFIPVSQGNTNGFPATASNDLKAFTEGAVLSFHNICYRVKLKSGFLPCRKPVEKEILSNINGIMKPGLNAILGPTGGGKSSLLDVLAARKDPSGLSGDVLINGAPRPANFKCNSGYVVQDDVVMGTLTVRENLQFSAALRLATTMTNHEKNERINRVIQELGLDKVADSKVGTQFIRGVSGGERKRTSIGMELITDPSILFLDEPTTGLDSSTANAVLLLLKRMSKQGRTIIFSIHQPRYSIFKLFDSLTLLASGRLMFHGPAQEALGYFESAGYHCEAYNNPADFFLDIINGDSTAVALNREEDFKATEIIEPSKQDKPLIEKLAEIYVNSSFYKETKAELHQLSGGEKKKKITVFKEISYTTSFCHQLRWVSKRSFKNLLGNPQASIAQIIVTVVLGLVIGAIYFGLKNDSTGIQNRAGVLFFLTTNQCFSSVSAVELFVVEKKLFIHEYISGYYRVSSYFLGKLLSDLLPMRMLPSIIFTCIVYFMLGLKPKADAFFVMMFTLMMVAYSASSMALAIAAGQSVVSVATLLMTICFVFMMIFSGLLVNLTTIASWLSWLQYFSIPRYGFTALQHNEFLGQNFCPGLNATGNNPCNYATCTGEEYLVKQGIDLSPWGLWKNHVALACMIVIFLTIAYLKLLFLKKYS
Protocol: In brief, a small incision was made in the abdomen and a lobe of ovary was removed. […] Oocytes were then defolliculated by treatment with 3.5 mg/mL collagenase A (Roche, Indianapolis, IN) in Ca^2+‐free ND96 medium for 60–70 min with gentle agitation at room temperature (25°C).
The indicated full‐length cDNAs were subcloned into the pGEMHE oocyte expression plasmid, 3′ of a T7 promoter and flanked by Xenopus laevis‐specific 5′‐ and 3′‐UTRs. Plasmid DNA was linearized at the 3′‐end of cDNAs by Not1, Nhe1, or EcoR1 digestion, and cRNA was in vitro transcribed by using T7 RNA polymerase (mMESSAGE mMACHINE; Ambion, Austin, TX) following the suppliers protocol. Isopropanol‐precipitated, in vitro transcribed capped cRNA was washed with 70% ethanol, dried and then dissolved in sterile nuclease‐free water. The yield and RNA integrity of the capped cRNA samples were assessed by spectroscopy (at 260 nm) and 1% agarose‐formaldehyde gel electrophoresis, respectively. All cRNA samples were stored frozen in aliquots at −80°C until used. About 18 h after isolation, oocytes were injected with 50 nL of sterile water, 50 mmol/L tris pH 7.4, or 50 nL of a cRNA solution in 50 mmol/L tris buffer (pH 7.4) containing 25 ng of the indicated cRNA using fine‐tipped micropipettes by a microinjector (World Precision Instrument Inc. Sarasota, FL).
Preinjected oocytes were then incubated in ND96 medium for 1 h at 16°C for recovery. After incubation, the oocytes were washed in cold ND96 medium four times to remove any external adhering [^14C]‐urate from the oocytes and then subjected to efflux for 1 h at room temperature (~25°C) in ND96 medium (pH 7.4) in the absence or presence of drug.
Radioisotope content of each individual oocyte was measured by scintillation counter after solubilization in 0.3 mL of 10% (v/v) SDS and addition of 2.5 mL of scintillation fluid. […] Statistical analyses including linear regressions were done using SigmaPlot software.
We investigated the effect of tranilast (added in the efflux assay medium) on the [^14C]‐urate efflux activity of ABCG2 expressed in Xenopus laevis oocytes. […]

[5] = human, Xenopus laevis oocytes expressing ABCG2, pH 7.4, probe [14C]-urate

Q: `CCc1oc2ccccc2c1C(=O)c1cc(Br)c(O)c(Br)c1` [benzbromarone] was tested. Which IC50 [1] did it give?
A: ~49.6 µM

Q: What about the IC50 [2] of the same compound?
A: ~61.3 µM

Q: What about the “Inhibition of OAT3-mediated urate uptake” value ([3]; drug 100 μmol/L) of the same compound?
A: effectively inhibited

Q: And the inhibition at 1 h, 100 μmol/L [4, 5]?
A: ~48%

Q: Which results are given for `CCCN(CCC)S(=O)(=O)c1ccc(C(=O)O)cc1` [probenecid]?
A: Inhibition of SMCT1 nicotinate uptake ([1]; drug 1.0 mmol/L): significantly inhibited; Inhibition of SMCT2 nicotinate uptake ([2]; drug 1.0 mmol/L): remained almost unaffected; Inhibition of OAT3-mediated urate uptake ([3]; drug 1.0 mmol/L): effectively inhibited; inhibition at 1 h, 1 mmol/L [4, 5]: ~20%

Q: For `COc1ccc(C=CC(=O)Nc2ccccc2C(=O)O)cc1OC` [tranilast, N‐(3,4‐dimethoxycinnamoyl) anthranilic acid], which IC50 [1] is on record?
A: ~1100 µM and > 185 µM

Q: And the IC50 [2]?
A: ~1000 µM and > 185 µM

Q: What about the IC50 ([3]; data not shown, read-out: IC50, OAT3-mediated urate uptake) of the same compound?
A: ~15 µM

Q: What about the “Inhibition of OAT3-mediated urate uptake” value ([3]; drug 50 μmol/L) of the same compound?
A: effectively inhibited

Q: And the “Effect on ABCG2-mediated urate efflux” value ([4]; drug 100 μmol/L, efflux 1 h)?
A: remained unaffected
